The values below come from patent US20220226372A1 (priority 2019, published 2022).

“Also recorded” adds a separate entry of the source. Read-outs that look alike come from different tables or passages of the source.

Data set [1] concerns HL60 cells. The data set is classed as cell-based, Human.
The subject of data set [2] is C57BL6 mice splenic cells. The data set is classed as cell-based, mouse.
The subject of data set [3] is HL60 cells. The data set is classed as cell-based, Human. This is another data set of the same source.
Data set [4] relates to HL60 cells. The format is cell-based, Human. This is another data set of the same source.
The subject of data set [5] is A20 cells. Kind of data set: A20 cell viability. Conditions: 48 h; for Effect on A20 viability vs control: H2O2 experiment. The data set is classed as cell-based, mouse. The protocol: (§1) Cells (1×10^5 per well) were seeded in 96-wells round bottom plates (Falcon, Corning, reference: 353077) and incubated for 48 hours with different experimental conditions in an incubator at 37° C. 5% CO2. Two plates were prepared in parallel to measure respectively the H2O2 production and A20 cell viability.
(§2) H2O2 production, GSH production and cell viability were measured using the same protocols as above-described for […].
(§3) Conditions of Treatments and Related Experimentations: 1 Test H2O2— 1 Test GSH • H2O2 or GSH production and cell survival: As2O3 (1 μM) with CuCl2 at 0.5; 1; 2 and 4 μM.

In another data set the test system is BALB/c mice. The data set is described as follows: Copper cytotoxicity assessment in mice. Conditions: copper 0.2 and 0.5 μg/g, 5 times a week for 5 weeks. The data set is classed as in vivo, mouse. How it is done:
To this aim, we injected a lower dose of copper (0.2 and 0.5 μg/g) 5 times a week for 5 weeks to a new series of BALB/c mice. We observed the mice every day, monitored their weight and followed their survival to evaluate copper toxicity.

For data set [6], the system named is chronic sclerodermatous Graft versus Host Disease.
The subject of data set [7] is A20 cells. Kind of data set: H2O2 production in A20 cultured cells. The data set is classed as cell-based, mouse. The note with it: 48 h, As2O3 at 1 μM, test 1. How it is done: as §1, §2, §3
Data set [8] has as its system A20 cells. Kind of data set: GSH production in A20 cultured cells. The data set is classed as cell-based, mouse. Conditions: 48 h, As2O3 at 1 μM, test 1. The protocol: as §1, §2, §3
Another data set has as its system MRL/lpr mice. Conditions: Bobé et al., Blood 2006; cited from earlier work.
The target of another data set is T1, caspase-1 (Homo sapiens, UniProt P29466).
T1 sequence (P29466 120-404): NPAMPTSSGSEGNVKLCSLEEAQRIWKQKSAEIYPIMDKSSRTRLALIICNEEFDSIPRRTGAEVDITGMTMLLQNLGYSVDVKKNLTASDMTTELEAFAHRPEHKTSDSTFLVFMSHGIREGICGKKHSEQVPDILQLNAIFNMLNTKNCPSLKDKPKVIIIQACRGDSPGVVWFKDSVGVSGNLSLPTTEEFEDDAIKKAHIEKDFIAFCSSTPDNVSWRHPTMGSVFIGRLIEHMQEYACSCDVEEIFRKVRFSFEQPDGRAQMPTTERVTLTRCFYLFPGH
Conditions: Maier et al., J. Immunol. 2014; cited from earlier work.

In a further data set the test system is Treg and T17 balance. Conditions: rheumatoid arthritis patients; Li et al. 2019; cited from earlier work.
The mark [9] stands for this setting: Allogeneic + As2O3 2.5 μg/g, 9 mice.
Where [10] appears, read: Allogeneic + As2O3 5 μg/g, 5 mice.

Take `O=S(=O)([O-])[O-].[Fe+2]` [FeSO4]: in the data set on HL60 cells [1], the “Cell survival: As2O3 + cations vs As2O3” value is reported as “no significant effect; also recorded: Not significant” and the “Cell survival: cations vs control” value is listed as “no significant effect; also recorded: Not significant”. Further, in data set [2], the “Cell proliferation: As2O3 + cations vs As2O3” value is “does not have a significant effect”.
With `[Cl][Mn][Cl]` [MnCl2], in the data set on HL60 cells [3], the “H2O2 Production: As2O3 + cations vs As2O3” value (from here on “H2O2 Production … vs As2O3”) worked out at 1 µM and the “H2O2 Production: cations vs control” value was found to be 1 µM. In the data set with HL60 cells [1], the “Cell survival: As2O3 + cations vs As2O3” value is given as “Not significant” and the “Cell survival: cations vs control” value is listed as “Not significant”.
With `[Cl-].[Cl-].[Zn+2]` [ZnCl2], in the data set with HL60 cells [3], the “H2O2 Production … vs As2O3” value is listed as “Not significant”. Besides, in the data set on HL60 cells [1], the “Cell survival: As2O3 + cations vs As2O3” value was “no significant and reproducible effect; also recorded: Not significant”; the “Cell survival: cations vs control” value was “Not significant”.
For the molecule `O=S(=O)([O-])[O-].[Mn+2]` [MnSO4], in the data set on HL60 cells [3], the “H2O2 Production … vs As2O3” value worked out at 0.25 µM. The “Cell survival: As2O3 + cations vs As2O3” value in the data set with HL60 cells [1] was “no real effect; also recorded: Not significant”.
`[Cl][Cu][Cl]` [CuCl2, copper(II) chloride]: the “Effect of AsI3 on H2O2 production: AsI3 + CuCl2 vs AsI3” value with HL60 cells [3] was “significantly increased”. In the data set on HL60 cells [3], the “Effect on the H2O2 production induced by As2O3” value was “significantly increases”. Besides, in the data set on HL60 cells [3], the “H2O2 Production: cations vs control” value was “no significant effect; also recorded: Not significant”. For the same molecule, the “Effect on the GSH production induced by As2O3” value with HL60 cells [4] is on record as “reduce”. The “GSH Production: cations vs control” value in the data set with HL60 cells [4] was “no significant effect; also recorded: Not significant”. Besides, the “Cell survival in presence of AsI3” value in the data set with HL60 cells [1] is “no effect”. Also, the “Cell survival: cations vs control” value in the data set with HL60 cells [1] (HL60 cells, 48 h (GSH experiment, Example 4), concentration(s) giving a significant difference, tests 1 and 2) is given as “no significant effect; also recorded: Not significant”; in the data set on HL60 cells [1] (HL60 cells, 48 h (H2O2 experiment), cation concentration(s) giving a statistically significant difference, tests 1 and 2), “no real effect; also recorded: Not significant”. Besides, the “Cell survival: As2O3 + cations vs As2O3” value in the data set with HL60 cells [1] (HL60 cells, 48 h, As2O3 1 μM (GSH experiment, Example 4), concentration(s) giving a significant difference, tests 1 and 2) is “no significant effect; also recorded: Not significant”; in the data set on HL60 cells [1] (HL60 cells, 48 h, As2O3 1 μM (H2O2 experiment), cation concentration(s) giving a statistically significant difference, tests 1 and 2), “no real effect; also recorded: Not significant”; with A20 cells [5] (As2O3 1 μM (GSH experiment), CuCl2 concentration(s) giving a significant increase of viability, 1 test) it was 4 µM. In the data set with HL60 cells [1] (HL60 cells, 48 h, CuCl2 at 1 and 4 μM with As2O3 0.1-10 μM), the “Effect on HL60 survival in the presence of As2O3” value was “no additional nor protective effect”. The “Cell proliferation: As2O3 + cations vs As2O3” value in [2] (MLR, 48 h, As2O3 1 μM, cation concentration(s) giving a significant decrease of proliferation, test 1) was 4 μM (test 1); in data set [2] (MLR, 48 h, As2O3 1 μM, cation concentration(s) giving a significant decrease of proliferation, tests 1 and 2), 4 μM or 2 and 4. Besides, in data set [2] (MLR, 48 h, AsI3 1 μM, test 2), the “Proliferation of C57BL6 spleen cells in the presence of AsI3: CuCl2 concentrations with significant decrease” value is 4 µM. Further, in the data set with BALB/c mice, the “Death after 5 weeks” value was “no death”. Moreover, the “Mean weights vs control group receiving PBS” value in the data set on BALB/c mice is listed as “similar”. Also, the “Mortality in the copper-treated groups” value is on record as “significant loss of mice” in [6] (copper 2.5 or 10 μg/g i.p. 5 times a week, injections stopped at the end of day 4) and “no more copper-treated mice died” in data set [6] (copper injected only twice a week from day 8 until the end of the 5 weeks).
As for Arsenic Trioxide [As2O3], in the data set with HL60 cells [3], the “Effect on the production of H2O2” value is on record as “not significant, but it increases at 5 μM”. For the same molecule, the “Effect on GSH production vs control” value was “significantly increases” in the data set on HL60 cells [4] and “significantly increased” in the data set on A20 cells [8]. In addition, the “Effect on H2O2 production vs control” value with A20 cells [7] was “significantly increased”. Moreover, the “Effect on A20 cells viability vs control” value in the data set with A20 cells [5] (As2O3 at 1 μM, GSH experiment, test 1) was “significantly reduced”. Also, the “Effect on A20 viability vs control” value in the data set with A20 cells [5] (As2O3 at 1 μM, test 1) is listed as “reduced”; with A20 cells [5] (As2O3 at 1 μM, test 2) it was “significantly reduced”. Further, the “Cell proliferation in the presence of mitogen” value in data set [2] is on record as “completely inhibits”. Besides, the “Number of mice at the end (live mice)” value in [6] (Allogeneic + As2O3 2.5 μg/g i.p. 5 times a week for 5 weeks, 10 mice at the beginning) is listed as 9; in data set [6] (Allogeneic + As2O3 5 μg/g i.p. 5 times a week for 5 weeks, 7 mice at the beginning), 5. The “Ear thickness (vasculitis)” value in [6] (Allogeneic + As2O3 2.5 μg/g vs allogeneic) is “reduced”; in data set [6] (Allogeneic + As2O3 5 μg/g vs allogeneic), “decreased even more until reaching the same values as the ones of the syngeneic group”. Further, the “Number of mice with alopecia” value in [6] (setting [9]) turned out to be 3; in [6] (setting [10]), 1. The entries for the “Percentage of mice with alopecia” value in [6] (setting [9]) and in [6] (setting [10]) were 33% and 20%, respectively. In addition, the “Survival of MRL/lpr mice” value in the data set with MRL/lpr mice is reported as “significantly prolonged”. Further, the “Inhibition of caspase-1 and the innate immune response” value on caspase-1 was “potent inhibitors”. The “Treg and T17 balance” value in the data set with Treg and T17 balance is listed as “improves”.
For the molecule `O=S(=O)([O-])[O-].[Zn+2]` [ZnSO4], the “Cell survival: As2O3 + cations vs As2O3” value with HL60 cells [1] is “no significant and reproducible effect; also recorded: Not significant”.
